Test results taken from PubChem BioAssay (NCI).
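Protocol summary: plate cells (96-well), add compound at 5 concentrations, incubate 48 h, interpolate endpoints linearly. TGI: concentration producing complete growth inhibition.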

Legend:
Test in all cases: NCI anticancer screen, dose series, 48 h
MCF7 breast = system: MCF7 breast
HCC-2998 colon = system: HCC-2998 colon
UACC-257 melanoma = system: UACC-257 melanoma
LOX IMVI melanoma = system: LOX IMVI melanoma
SN12C renal = system: SN12C renal
MALME-3M melanoma = system: MALME-3M melanoma
SR leukemia = system: SR leukemia
BT-549 breast = system: BT-549 breast
MDA-MB-231 breast = system: MDA-MB-231 breast
MOLT-4 leukemia = system: MOLT-4 leukemia
SW-620 colon = system: SW-620 colon
M14 melanoma = system: M14 melanoma
SK-OV-3 ovarian = system: SK-OV-3 ovarian
HL-60(TB) leukemia = system: HL-60(TB) leukemia
NCI-H460 lung = system: NCI-H460 lung
EKVX NSCLC = system: EKVX NSCLC

COc1ccc(C(=O)N2CCN(c3ccc4c(c3)OCC(=O)N4)CC2)cc1OC was tested, and the TGI (MCF7 breast) was greater than 100 µM, the TGI (HCC-2998 colon) was greater than 100 µM and the TGI (UACC-257 melanoma) was greater than 100 µM. The TGI (LOX IMVI melanoma) was greater than 100 µM, the TGI (SN12C renal) was greater than 100 µM and the TGI (MALME-3M melanoma) was greater than 100 µM. It also gave a TGI (SR leukemia) greater than 100 µM, a TGI (BT-549 breast) greater than 100 µM and a TGI (MDA-MB-231 breast) greater than 100 µM. The TGI (MOLT-4 leukemia) was greater than 100 µM, the TGI (SW-620 colon) was greater than 100 µM and the TGI (M14 melanoma) was greater than 100 µM. The TGI (SK-OV-3 ovarian) was greater than 100 µM, the TGI (HL-60(TB) leukemia) was greater than 100 µM and the TGI (NCI-H460 lung) was greater than 100 µM. The TGI (EKVX NSCLC) was greater than 100 µM.
Work on O=C(CCc1ccc(O)c(O)c1)NCCc1ccccc1 yielded a TGI (MCF7 breast) of 35 µM, a TGI (HCC-2998 colon) greater than 100 µM and a TGI (UACC-257 melanoma) greater than 100 µM. It also gave a TGI (LOX IMVI melanoma) greater than 100 µM, a TGI (SN12C renal) greater than 31.6 µM and a TGI (MALME-3M melanoma) greater than 100 µM. The TGI (SR leukemia) was 47.5 µM, the TGI (BT-549 breast) was greater than 89.1 µM and the TGI (MDA-MB-231 breast) was greater than 63.8 µM. For the same compound, the TGI (MOLT-4 leukemia) was greater than 100 µM, the TGI (SW-620 colon) was greater than 100 µM and the TGI (M14 melanoma) was greater than 100 µM. It also gave a TGI (SK-OV-3 ovarian) greater than 100 µM, a TGI (HL-60(TB) leukemia) of 34 µM and a TGI (NCI-H460 lung) greater than 100 µM. It also gave a TGI (EKVX NSCLC) greater than 100 µM.
Cc1n[nH]c(=O)n1Nc1ccccc1 gave a TGI (MCF7 breast) greater than 100 µM, a TGI (HCC-2998 colon) greater than 100 µM and a TGI (UACC-257 melanoma) greater than 100 µM. For the same compound, the TGI (LOX IMVI melanoma) was greater than 100 µM, the TGI (SN12C renal) was greater than 100 µM and the TGI (MALME-3M melanoma) was greater than 100 µM. It also gave a TGI (SR leukemia) greater than 100 µM, a TGI (BT-549 breast) greater than 100 µM and a TGI (MDA-MB-231 breast) greater than 100 µM. For the same compound, the TGI (MOLT-4 leukemia) was greater than 100 µM, the TGI (SW-620 colon) was greater than 100 µM and the TGI (M14 melanoma) was greater than 100 µM. The TGI (SK-OV-3 ovarian) was greater than 100 µM, the TGI (HL-60(TB) leukemia) was greater than 100 µM and the TGI (NCI-H460 lung) was greater than 100 µM. For the same compound, the TGI (EKVX NSCLC) was greater than 100 µM.
For COC(=O)[C@H](C)NC(=O)C1(CNC(=O)[C@H](C)NC(=O)OC(C)(C)C)Cc2ccccc2-c2ccccc2C1, the TGI (MCF7 breast) was greater than 84.3 µM, the TGI (HCC-2998 colon) was greater than 59.8 µM and the TGI (UACC-257 melanoma) was greater than 78.9 µM. It also gave a TGI (LOX IMVI melanoma) of 9.13 µM, a TGI (SN12C renal) of 34.6 µM and a TGI (MALME-3M melanoma) of 36.1 µM. For the same compound, the TGI (SR leukemia) was 43.4 µM, the TGI (BT-549 breast) was greater than 70.3 µM and the TGI (MDA-MB-231 breast) was 35.4 µM. The TGI (MOLT-4 leukemia) was 37.6 µM, the TGI (SW-620 colon) was greater than 64.3 µM and the TGI (M14 melanoma) was greater than 78.5 µM. It also gave a TGI (SK-OV-3 ovarian) greater than 100 µM, a TGI (HL-60(TB) leukemia) of 39.5 µM and a TGI (NCI-H460 lung) of 42.9 µM. For the same compound, the TGI (EKVX NSCLC) was 47 µM.
Compound O=C(NNC(=S)Nc1ccc(Cl)cc1)C12CC3CC(CC(C3)C1)C2 has a TGI (MCF7 breast) greater than 56.5 µM, a TGI (HCC-2998 colon) of 27 µM and a TGI (UACC-257 melanoma) greater than 57.3 µM. The TGI (LOX IMVI melanoma) was 19 µM, the TGI (SN12C renal) was 28.7 µM and the TGI (MALME-3M melanoma) was 47.4 µM. For the same compound, the TGI (SR leukemia) was 4.83 µM, the TGI (BT-549 breast) was 39.4 µM and the TGI (MDA-MB-231 breast) was 19.6 µM. It also gave a TGI (MOLT-4 leukemia) of 10.7 µM, a TGI (SW-620 colon) of 35.6 µM and a TGI (M14 melanoma) of 26.6 µM. The TGI (SK-OV-3 ovarian) was 64.7 µM, the TGI (HL-60(TB) leukemia) was 5.48 µM and the TGI (NCI-H460 lung) was 24.5 µM. For the same compound, the TGI (EKVX NSCLC) was 55 µM.
In the case of C=C[C@]1(C)CC(=O)C(C(C)C=O)[C@]12C(=O)Oc1cccc(C)c1C2=O (stereo partly specified), the TGI (MCF7 breast) is reported as 32.7 µM, the TGI (HCC-2998 colon) is reported as 31.7 µM and the TGI (UACC-257 melanoma) is reported as 33.2 µM. For the same compound, the TGI (LOX IMVI melanoma) was 27.5 µM, the TGI (SN12C renal) was 30.3 µM and the TGI (MALME-3M melanoma) was 34.5 µM. It also gave a TGI (SR leukemia) greater than 100 µM, a TGI (BT-549 breast) of 28.4 µM and a TGI (MDA-MB-231 breast) of 31.6 µM. The TGI (MOLT-4 leukemia) was greater than 100 µM, the TGI (SW-620 colon) was 25.2 µM and the TGI (M14 melanoma) was 29.8 µM. The TGI (SK-OV-3 ovarian) was 33.1 µM, the TGI (HL-60(TB) leukemia) was 32.3 µM and the TGI (NCI-H460 lung) was 30.5 µM. It also gave a TGI (EKVX NSCLC) of 40.2 µM.
